{"source": "paper doi:10.1101/2020.01.16.909325v1", "about": "(biorxiv, 2020)", "target": "HTR4 (Homo sapiens, UniProt Q13639)", "sequence (Q13639 whole entry)": "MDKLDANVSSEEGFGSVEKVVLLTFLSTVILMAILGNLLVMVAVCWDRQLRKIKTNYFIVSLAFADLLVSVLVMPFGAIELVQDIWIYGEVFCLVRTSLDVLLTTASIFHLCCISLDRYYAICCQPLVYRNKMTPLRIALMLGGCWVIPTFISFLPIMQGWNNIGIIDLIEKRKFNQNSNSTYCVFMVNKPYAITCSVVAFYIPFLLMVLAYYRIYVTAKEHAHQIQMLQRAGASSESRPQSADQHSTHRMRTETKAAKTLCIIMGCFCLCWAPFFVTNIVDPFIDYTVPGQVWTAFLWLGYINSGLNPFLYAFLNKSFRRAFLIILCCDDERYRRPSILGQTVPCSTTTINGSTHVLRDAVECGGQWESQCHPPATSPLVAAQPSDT", "conditions": "agonist; pH 7.0, 30 °C", "data": [{"smiles": "NCCc1c[nH]c2ccccc12", "note": "[tryptamine]", "values": [{"measurement": "EC50", "value": "tryptamine agonism of HTR4 and ADRA2B"}]}]}
